Results as given in US9738634B2, “Heterocyclic amide compound and herbicide” (SYNGENTA PARTICIPATIONS AG, priority 2013, dated 2017).

Experiments:
Assay type in all cases: in vivo
[1] = tested on: barnyard grass; assay: Test Example 1: weedkilling efficacy, preemergent weed treatment in the submerged state; A: barnyard grass; settings: treatment dosage 252 g/ha
Summary of the method: (§1)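 Visual scores against set criteria were taken 3 weeks after treatment. Compounds, as diluted emulsions at specified g/ha, went onto the water surface of 4 cm-flooded alluvial soil pots on the day weeds were sown and 2.5-leaf rice was transplanted; greenhouse held 25–30 °C.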

[2] = tested on: bulrush; assay: Test Example 1: weedkilling efficacy, preemergent weed treatment in the submerged state; B: bulrush; settings: treatment dosage 252 g/ha
Summary of the method: as §1

[3] = tested on: oval-leafed pondweed; assay: Test Example 1: weedkilling efficacy, preemergent weed treatment in the submerged state; C: oval-leafed pondweed; settings: treatment dosage 252 g/ha
Summary of the method: as §1

[4] = tested on: transplanted rice; assay: Test Example 1: preemergent weed treatment in the submerged state, effect on crop; a: transplanted rice; settings: treatment dosage 252 g/ha
Summary of the method: as §1

[5] = tested on: barnyard grass; assay: Test Example 2: weedkilling efficacy, growth period weed treatment in the submerged state; A: barnyard grass; settings: treatment dosage 252 g/ha
Summary of the method: (§2)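 Barnyard grass, bulrush and oval-leafed pondweed sown in alluvial soil under 4 cm flooding, greenhouse 25 to 30° C. At 1-2 leaf stage, water-diluted emulsion applied to the water surface at stated g/ha dosages; effects scored 3 weeks later.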

[6] = tested on: bulrush; assay: Test Example 2: weedkilling efficacy, growth period weed treatment in the submerged state; B: bulrush; settings: treatment dosage 252 g/ha
Summary of the method: as §2

[7] = tested on: oval-leafed pondweed; assay: Test Example 2: weedkilling efficacy, growth period weed treatment in the submerged state; C: oval-leafed pondweed; settings: treatment dosage 252 g/ha
Summary of the method: as §2

[8] = tested on: crabgrass; assay: Test Example 3: weedkilling efficacy through soil treatment; D: crabgrass; settings: soil treatment, treatment dosage 315 g/ha
Summary of the method: (§3)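 Crop and weed responses were judged three weeks after a uniform surface spray of the water-diluted emulsion at the given g/ha rate. Seeds sat beneath about 1.5 cm of sterilized diluvial soil, and boxes stood in a greenhouse at 25 to 30° C.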

[9] = tested on: green foxtail; assay: Test Example 3: weedkilling efficacy through soil treatment; E: green foxtail; settings: soil treatment, treatment dosage 315 g/ha
Summary of the method: as §3

[10] = tested on: wild oat; assay: Test Example 3: weedkilling efficacy through soil treatment; G: wild oat; settings: soil treatment, treatment dosage 315 g/ha
Summary of the method: as §3

[11] = tested on: black-grass; assay: Test Example 3: weedkilling efficacy through soil treatment; H: black-grass; settings: soil treatment, treatment dosage 315 g/ha
Summary of the method: as §3

[12] = tested on: Italian ryegrass; assay: Test Example 3: weedkilling efficacy through soil treatment; I: Italian ryegrass; settings: soil treatment, treatment dosage 315 g/ha
Summary of the method: as §3

[13] = tested on: Indian mallow; assay: Test Example 3: weedkilling efficacy through soil treatment; K: Indian mallow; settings: soil treatment, treatment dosage 315 g/ha
Summary of the method: as §3

[14] = tested on: redroot pigweed; assay: Test Example 3: weedkilling efficacy through soil treatment; L: redroot pigweed; settings: soil treatment, treatment dosage 315 g/ha
Summary of the method: as §3

[15] = tested on: fig-leafed goosefoot; assay: Test Example 3: weedkilling efficacy through soil treatment; M: fig-leafed goosefoot; settings: soil treatment, treatment dosage 315 g/ha
Summary of the method: as §3

[16] = tested on: chickweed; assay: Test Example 3: weedkilling efficacy through soil treatment; N: chickweed; settings: soil treatment, treatment dosage 315 g/ha
Summary of the method: as §3

[17] = tested on: birds-eye speedwell; assay: Test Example 3: weedkilling efficacy through soil treatment; p: birds-eye speedwell; settings: soil treatment, treatment dosage 315 g/ha
Text: Weedkilling Efficacy Test Through Soil Treatment
Sterilized diluvial soil was introduced into 21 cm long, 13 cm wide, 7 cm deep plastic boxes, and seeds of crabgrass, green foxtail, barnyard grass, wild oat, black-grass, Italian ryegrass, common wind-grass, Indian mallow, redroot pigweed, fig-leafed goosefoot, chickweed, catchweed, birds-eye speedwell, corn, soybean, rice, wheat, beet and rapeseed were each spot-sown, and covered with about 1.5 cm of soil. Next, emulsions of compounds of the present invention prepared according to compounding example 2 were diluted with water to give the specified dosages, and applied uniformly onto the soil surface with a small sprayer. The plants were grown by placing the plastic boxes in a greenhouse at 25 to 30° C., and 3 weeks after the pesticide treatment the effect on each type of plant was investigated on the basis of the assessment criteria of test example 1.
A: barnyard grass, B: bulrush, C: oval-leafed pondweed, D: crabgrass, E: green foxtail, F: barnyard grass, G: wild oat, H: black-grass, I: Italian ryegrass, J: common wind-grass, K: Indian mallow, L: redroot pigweed, M: fig-leafed goosefoot, N: chickweed, O: catchweed, p: birds-eye speedwell, a: transplanted rice, b: directly sown rice, c: corn, d: soybean, e: wheat, f: beet, g: rapeseed
Further, pesticide dosage (g/ha) indicates the concentration regulated such that treatment was with only the stated number of grams (g), when calculated per hectare (ha).

[18] = tested on: directly sown rice; assay: Test Example 3: soil treatment, effect on crop; b: directly sown rice; settings: soil treatment, treatment dosage 315 g/ha
Summary of the method: as §3

[19] = tested on: corn; assay: Test Example 3: soil treatment, effect on crop; c: corn; settings: soil treatment, treatment dosage 315 g/ha
Summary of the method: as §3

[20] = tested on: soybean; assay: Test Example 3: soil treatment, effect on crop; d: soybean; settings: soil treatment, treatment dosage 315 g/ha
Summary of the method: as §3

[21] = tested on: wheat; assay: Test Example 3: soil treatment, effect on crop; e: wheat; settings: soil treatment, treatment dosage 315 g/ha
Summary of the method: as §3

[22] = tested on: beet; assay: Test Example 3: soil treatment, effect on crop; f: beet; settings: soil treatment, treatment dosage 315 g/ha
Summary of the method: as §3

Compound	A: barnyard grass, weed kill grade [1]	B: bulrush, weed kill grade [2]	C: oval-leafed pondweed, weed kill grade [3]	a: transplanted rice, effect on crop grade [4]	A (barnyard grass) weedkilling efficacy grade [5]	B (bulrush) weedkilling efficacy grade [6]	C (oval-leafed pondweed) weedkilling efficacy grade [7]	D: crabgrass, weedkilling efficacy grade [8]	E: green foxtail, weedkilling efficacy grade [9]	G: wild oat, weedkilling efficacy grade [10]	H: black-grass, weedkilling efficacy grade [11]	I: Italian ryegrass, weedkilling efficacy grade [12]	K: Indian mallow, weedkilling efficacy grade [13]	L: redroot pigweed, weedkilling efficacy grade [14]	M: fig-leafed goosefoot, weedkilling efficacy grade [15]	N: chickweed, weedkilling efficacy grade [16]	P: birds-eye speedwell, weedkilling efficacy grade [17]	b: directly sown rice, effect on crop grade [18]	c: corn, effect on crop grade [19]	d: soybean, effect on crop grade [20]	further results
CC(C)(C(=O)Nc1ncc(Cl)s1)N1COCN(c2ccccc2)C1=O [A-1-07]	5 (weed kill ratio 90% or more, (practically complete withering))	5 (weed kill ratio 90% or more, (practically complete withering))	5 (weed kill ratio 90% or more, (practically complete withering))	0 (weed kill ratio 5% or less (practically no effect))	5 (weed kill ratio 90% or more, (practically complete withering))	5 (weed kill ratio 90% or more, (practically complete withering))	5 (weed kill ratio 90% or more, (practically complete withering))	5 (weed kill ratio 90% or more, (practically complete withering))	5 (weed kill ratio 90% or more, (practically complete withering))	5 (weed kill ratio 90% or more, (practically complete withering))	5 (weed kill ratio 90% or more, (practically complete withering))	5 (weed kill ratio 90% or more, (practically complete withering))	4 (weed kill ratio 70% or more, less than 90%)	5 (weed kill ratio 90% or more, (practically complete withering))	4 (weed kill ratio 70% or more, less than 90%)	4 (weed kill ratio 70% or more, less than 90%)	5 (weed kill ratio 90% or more, (practically complete withering))	5 (weed kill ratio 90% or more, (practically complete withering))	3 (weed kill ratio 40% or more, less than 70%)	1 (weed kill ratio 5% or more, less than 20%)	e: wheat, effect on crop grade [21]: 2 (weed kill ratio 20% or more, less than 40%); f: beet, effect on crop grade [22]: 5 (weed kill ratio 90% or more, (practically complete withering))
CC(C)(C(=O)Nc1ccccn1)N1COCN(c2ccccc2)C1=O [A-2-01]	5 (weed kill ratio 90% or more, (practically complete withering))	5 (weed kill ratio 90% or more, (practically complete withering))	4 (weed kill ratio 70% or more, less than 90%)	0 (weed kill ratio 5% or less (practically no effect))	3 (weed kill ratio 40% or more, less than 70%)	5 (weed kill ratio 90% or more, (practically complete withering))	2 (weed kill ratio 20% or more, less than 40%)	4 (weed kill ratio 70% or more, less than 90%)	4 (weed kill ratio 70% or more, less than 90%)	2 (weed kill ratio 20% or more, less than 40%)	5 (weed kill ratio 90% or more, (practically complete withering))	5 (weed kill ratio 90% or more, (practically complete withering))	0 (weed kill ratio 5% or less (practically no effect))	3 (weed kill ratio 40% or more, less than 70%)	4 (weed kill ratio 70% or more, less than 90%)	3 (weed kill ratio 40% or more, less than 70%)	5 (weed kill ratio 90% or more, (practically complete withering))	3 (weed kill ratio 40% or more, less than 70%)	0 (weed kill ratio 5% or less (practically no effect))	2 (weed kill ratio 20% or more, less than 40%)	e: wheat, effect on crop grade [21]: 0 (weed kill ratio 5% or less (practically no effect)); f: beet, effect on crop grade [22]: 0 (weed kill ratio 5% or less (practically no effect))
CC(C)(C(=O)Nc1cccc(F)n1)N1COCN(c2ccccc2)C1=O [A-2-05]	5 (weed kill ratio 90% or more, (practically complete withering))	5 (weed kill ratio 90% or more, (practically complete withering))	5 (weed kill ratio 90% or more, (practically complete withering))	3 (weed kill ratio 40% or more, less than 70%)	4 (weed kill ratio 70% or more, less than 90%)	5 (weed kill ratio 90% or more, (practically complete withering))	4 (weed kill ratio 70% or more, less than 90%)	5 (weed kill ratio 90% or more, (practically complete withering))	5 (weed kill ratio 90% or more, (practically complete withering))	5 (weed kill ratio 90% or more, (practically complete withering))	5 (weed kill ratio 90% or more, (practically complete withering))	5 (weed kill ratio 90% or more, (practically complete withering))	3 (weed kill ratio 40% or more, less than 70%)	5 (weed kill ratio 90% or more, (practically complete withering))	4 (weed kill ratio 70% or more, less than 90%)	4 (weed kill ratio 70% or more, less than 90%)	5 (weed kill ratio 90% or more, (practically complete withering))	5 (weed kill ratio 90% or more, (practically complete withering))	4 (weed kill ratio 70% or more, less than 90%)	4 (weed kill ratio 70% or more, less than 90%)	e: wheat, effect on crop grade [21]: 4 (weed kill ratio 70% or more, less than 90%); f: beet, effect on crop grade [22]: 5 (weed kill ratio 90% or more, (practically complete withering))
